Like-named read-outs stand apart in the source and are kept apart here.
Experiments:
[1] = tested on: ER+BC; conditions: cited from earlier work
[2] = molecular target: CDK2/CyclinE1 (Homo sapiens (Human), UniProt P24941); test: CDK2/CyclinE1 kinase inhibitory activity (Caliper mobility shift); format: biochemical; conditions: read-out: CDK2/Cyclin El IC50
[3] = molecular target: CDK1/CyclinB (Homo sapiens (Human), UniProt P06493); test: CDK1/CyclinB kinase inhibitory activity (Caliper mobility shift); format: biochemical; conditions: read-out: CDK1/Cyclin B1 IC50
Sequence of CDK1/CyclinB (P06493 whole entry): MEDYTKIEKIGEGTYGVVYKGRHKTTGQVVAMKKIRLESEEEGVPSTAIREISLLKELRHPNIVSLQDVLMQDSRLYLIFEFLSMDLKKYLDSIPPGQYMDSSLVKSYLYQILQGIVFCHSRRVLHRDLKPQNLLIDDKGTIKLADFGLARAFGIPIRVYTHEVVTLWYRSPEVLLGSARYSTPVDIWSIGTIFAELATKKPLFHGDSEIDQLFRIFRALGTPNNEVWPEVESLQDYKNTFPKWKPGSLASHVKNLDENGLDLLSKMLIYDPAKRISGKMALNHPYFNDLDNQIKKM
Sequence of CDK1/CyclinB (P14635 whole entry partner): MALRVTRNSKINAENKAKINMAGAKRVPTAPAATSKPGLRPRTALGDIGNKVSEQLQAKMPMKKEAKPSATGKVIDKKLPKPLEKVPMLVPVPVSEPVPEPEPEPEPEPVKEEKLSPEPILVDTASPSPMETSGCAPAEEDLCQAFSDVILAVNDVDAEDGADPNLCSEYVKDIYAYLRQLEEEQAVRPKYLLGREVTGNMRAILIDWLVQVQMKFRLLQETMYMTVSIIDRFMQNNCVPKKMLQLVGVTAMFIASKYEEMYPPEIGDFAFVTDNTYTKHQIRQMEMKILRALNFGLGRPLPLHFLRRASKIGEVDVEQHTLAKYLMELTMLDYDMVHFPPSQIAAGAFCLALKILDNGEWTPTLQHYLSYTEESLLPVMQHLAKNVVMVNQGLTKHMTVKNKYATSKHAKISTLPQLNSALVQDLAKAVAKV

[4] = molecular target: CDK4/Cyclin D1 (Homo sapiens (Human), UniProt P11802); test: CDK4/CyclinD1 kinase inhibitory activity (Caliper mobility shift); format: biochemical
Sequence of CDK4/Cyclin D1 (P11802 whole entry): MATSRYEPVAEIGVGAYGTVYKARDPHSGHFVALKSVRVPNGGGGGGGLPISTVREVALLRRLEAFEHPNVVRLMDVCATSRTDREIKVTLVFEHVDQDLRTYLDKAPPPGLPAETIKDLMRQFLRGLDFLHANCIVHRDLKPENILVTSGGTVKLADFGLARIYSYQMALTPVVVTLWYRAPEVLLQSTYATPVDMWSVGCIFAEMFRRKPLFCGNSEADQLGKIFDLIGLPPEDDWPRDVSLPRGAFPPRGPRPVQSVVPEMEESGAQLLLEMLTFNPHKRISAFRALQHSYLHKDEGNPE
Sequence of CDK4/Cyclin D1 (P24385 whole entry partner): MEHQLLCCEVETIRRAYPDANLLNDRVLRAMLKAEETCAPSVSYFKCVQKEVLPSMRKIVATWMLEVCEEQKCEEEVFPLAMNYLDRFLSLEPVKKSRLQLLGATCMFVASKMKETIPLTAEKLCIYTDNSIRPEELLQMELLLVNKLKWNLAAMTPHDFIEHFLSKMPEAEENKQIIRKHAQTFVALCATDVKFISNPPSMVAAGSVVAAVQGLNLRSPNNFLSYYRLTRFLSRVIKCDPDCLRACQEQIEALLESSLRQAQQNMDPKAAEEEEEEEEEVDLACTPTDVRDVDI

[5] = molecular target: CDK6/CyclinD1 (Homo sapiens (Human), UniProt Q00534); test: CDK6/CyclinD1 kinase inhibitory activity (Caliper mobility shift); format: biochemical; conditions: read-out: CDK6/Cyclin D1 IC50
Sequence of CDK6/CyclinD1 (Q00534 whole entry): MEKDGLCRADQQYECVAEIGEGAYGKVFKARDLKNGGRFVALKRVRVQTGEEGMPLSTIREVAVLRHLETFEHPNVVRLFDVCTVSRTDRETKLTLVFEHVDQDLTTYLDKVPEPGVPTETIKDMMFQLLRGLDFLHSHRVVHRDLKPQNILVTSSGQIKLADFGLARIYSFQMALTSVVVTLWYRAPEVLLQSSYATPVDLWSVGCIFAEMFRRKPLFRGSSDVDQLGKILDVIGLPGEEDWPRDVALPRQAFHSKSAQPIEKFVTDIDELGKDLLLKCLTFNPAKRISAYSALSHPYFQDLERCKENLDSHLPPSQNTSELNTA
Sequence of CDK6/CyclinD1 (P24385 whole entry partner): as the sequence (P24385 whole entry partner) above

[6] = molecular target: CDK7/CyclinH/MAT1 (Homo sapiens (Human), UniProt P50613); test: CDK7/CyclinH/MAT1 kinase inhibitory activity (Caliper mobility shift); format: biochemical
Sequence of CDK7/CyclinH/MAT1 (P50613 whole entry): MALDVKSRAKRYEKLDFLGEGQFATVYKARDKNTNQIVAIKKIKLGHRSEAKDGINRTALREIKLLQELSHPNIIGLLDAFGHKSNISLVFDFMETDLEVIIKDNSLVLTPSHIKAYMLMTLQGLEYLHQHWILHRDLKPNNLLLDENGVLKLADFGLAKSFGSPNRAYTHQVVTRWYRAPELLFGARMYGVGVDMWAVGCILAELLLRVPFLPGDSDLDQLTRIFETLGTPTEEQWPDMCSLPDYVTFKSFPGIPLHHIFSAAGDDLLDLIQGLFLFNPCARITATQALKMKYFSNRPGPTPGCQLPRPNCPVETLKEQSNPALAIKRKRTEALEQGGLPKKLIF
Sequence of CDK7/CyclinH/MAT1 (P51946 whole entry partner): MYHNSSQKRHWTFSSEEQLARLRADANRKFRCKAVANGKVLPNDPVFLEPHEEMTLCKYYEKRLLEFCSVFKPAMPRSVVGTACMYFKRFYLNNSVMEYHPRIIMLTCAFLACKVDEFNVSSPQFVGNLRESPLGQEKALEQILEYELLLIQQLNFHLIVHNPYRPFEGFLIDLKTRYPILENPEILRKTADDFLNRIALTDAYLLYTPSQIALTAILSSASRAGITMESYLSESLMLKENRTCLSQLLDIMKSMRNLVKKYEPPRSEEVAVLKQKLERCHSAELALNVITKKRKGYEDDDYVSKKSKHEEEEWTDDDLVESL
Sequence of CDK7/CyclinH/MAT1 (P51948 whole entry partner): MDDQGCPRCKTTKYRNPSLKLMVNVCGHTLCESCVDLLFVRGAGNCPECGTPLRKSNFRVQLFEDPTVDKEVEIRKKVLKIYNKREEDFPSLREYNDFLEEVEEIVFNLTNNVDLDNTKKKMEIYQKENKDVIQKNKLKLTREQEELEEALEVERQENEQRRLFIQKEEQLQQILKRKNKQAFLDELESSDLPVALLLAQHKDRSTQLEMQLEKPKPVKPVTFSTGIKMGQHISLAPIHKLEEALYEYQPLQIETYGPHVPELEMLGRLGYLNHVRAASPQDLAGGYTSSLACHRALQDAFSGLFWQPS

[7] = molecular target: CDK9/CyclinT1 (Homo sapiens (Human), UniProt P50750); test: CDK9/CyclinT1 kinase inhibitory activity (Caliper mobility shift); format: biochemical; conditions: read-out: CDK9/Cyclin T1 IC50
Sequence of CDK9/CyclinT1 (P50750 whole entry): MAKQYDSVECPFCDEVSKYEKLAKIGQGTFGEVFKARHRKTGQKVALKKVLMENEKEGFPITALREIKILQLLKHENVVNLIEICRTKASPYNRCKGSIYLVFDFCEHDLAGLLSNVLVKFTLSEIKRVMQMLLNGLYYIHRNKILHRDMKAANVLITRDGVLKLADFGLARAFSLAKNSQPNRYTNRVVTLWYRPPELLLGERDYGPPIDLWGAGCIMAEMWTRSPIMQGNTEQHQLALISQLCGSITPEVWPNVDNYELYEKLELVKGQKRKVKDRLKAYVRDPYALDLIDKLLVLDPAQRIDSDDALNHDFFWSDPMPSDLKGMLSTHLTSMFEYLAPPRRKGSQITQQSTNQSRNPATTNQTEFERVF
Sequence of CDK9/CyclinT1 (O60563 whole entry partner): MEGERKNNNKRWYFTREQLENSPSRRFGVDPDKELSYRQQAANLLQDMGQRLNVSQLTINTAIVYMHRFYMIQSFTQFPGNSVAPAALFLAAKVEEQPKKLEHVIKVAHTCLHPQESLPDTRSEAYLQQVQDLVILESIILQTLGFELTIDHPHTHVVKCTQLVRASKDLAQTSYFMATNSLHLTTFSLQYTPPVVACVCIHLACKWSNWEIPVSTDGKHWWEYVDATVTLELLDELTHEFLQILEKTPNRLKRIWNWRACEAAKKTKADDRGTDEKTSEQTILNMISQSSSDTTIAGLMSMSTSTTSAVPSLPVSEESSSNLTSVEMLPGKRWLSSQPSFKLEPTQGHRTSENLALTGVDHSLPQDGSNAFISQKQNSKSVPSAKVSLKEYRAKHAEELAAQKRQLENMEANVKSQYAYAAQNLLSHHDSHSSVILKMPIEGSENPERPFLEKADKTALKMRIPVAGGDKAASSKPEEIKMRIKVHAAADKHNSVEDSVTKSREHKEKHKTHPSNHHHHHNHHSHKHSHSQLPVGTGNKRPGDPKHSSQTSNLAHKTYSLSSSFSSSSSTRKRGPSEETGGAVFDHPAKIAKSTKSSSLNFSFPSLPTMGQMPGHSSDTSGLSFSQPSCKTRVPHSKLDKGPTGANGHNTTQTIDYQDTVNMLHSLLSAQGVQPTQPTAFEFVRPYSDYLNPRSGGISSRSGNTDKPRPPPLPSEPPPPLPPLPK

Row | Compound | median PFS ([1]; CCNE1 high) [month] | median PFS ([1]; CCNE1 low) [month] | IC50 [2] [nM] | IC50 [3] [nM] | IC50 [4] [nM] | IC50 [5] [nM] | IC50 [6] [nM] | IC50 [7] [nM]
1 | Palbociclib plus fulvestrant [Palbociclib+fulvestrant] | 7.6 | 14.1 | – | – | – | – | – | –
2 | CNS(=O)(=O)c1ccc(Nc2ncc(Br)c(OC3CCCC3O)n2)cc1 (single isomer, unassigned) [Example 142a] | – | – | < 10 | 10 to 100 | 100 to 1000 | 10 to 100 | 100 to 1000 | 100 to 1000
3 | Cn1cc(S(=O)(=O)N2CCC(Nc3ncc(C#N)c(OCC4(C)CC(F)(F)C4)n3)CC2)cn1 [Example 61] | – | – | < 10 | 10 to 100 | < 10 | 10 to 100 | 100 to 1000 | 100 to 1000
4 | CC(C)NS(=O)(=O)c1ccc(Nc2ncc(C#N)c(OC3CCCC3(C)O)n2)cc1 (single isomer, unassigned) [Example 35a] | – | – | < 10 | < 10 | 10 to 100 | 10 to 100 | 10 to 100 | 10 to 100
5 | CC(C)NS(=O)(=O)c1ccc(Nc2ncc(C3CC3)c(O[C@@H]3CCC[C@@H]3O)n2)cc1 (single isomer, unassigned) [Example 134a, cis-4-((5-cyclopropyl-4-((2-hydroxycyclopentyl)oxy)pyrimidin-2-yl)amino)-N-isopropylbenzenesulfonamide] | – | – | < 10 | 10 to 100 | 100 to 1000 | 100 to 1000 | 100 to 1000 | 100 to 1000
6 | CC(C)NS(=O)(=O)c1ccc(Nc2ncc(Cl)c(OC3CCCC3O)n2)cc1 (single isomer, unassigned) [Example 138a] | – | – | < 10 | 10 to 100 | 100 to 1000 | 100 to 1000 | 100 to 1000 | 100 to 1000
7 | Cc1cccc(-c2nc(Nc3ccc(S(N)(=O)=O)cc3)ncc2C#N)c1 [Example 94] | – | – | < 10 | 10 to 100 | 10 to 100 | 100 to 1000 | ≥ 1000 | 10 to 100
8 | Cc1cnc(Nc2ccc(S(=O)(=O)NC3CC3)cc2)nc1OC1CCCC1O (single isomer, unassigned) [Example 146a] | – | – | < 10 | 100 to 1000 | ≥ 1000 | 100 to 1000 | ≥ 1000 | 100 to 1000
9 | COCCS(=O)(=O)N1CCC(Nc2ncc(C#N)c(OCC3(C)CCCC3)n2)CC1 [Example 58] | – | – | < 10 | 10 to 100 | < 10 | 10 to 100 | 100 to 1000 | 100 to 1000

Reference: US20240166635A1, “AMINOHETEROARYL KINASE INHIBITORS” (Anrui Biomedical Technology (Guangzhou) Co.,Ltd., priority 2020, published 2024)
